From publication PMC10043345, “Discovery of BAR502, as potent steroidal antagonist of leukemia inhibitory factor receptor for the treatment of pancreatic adenocarcinoma” (Frontiers in Oncology, 2023)
“And” between values parts separate entries of the source, which are not always exact repeats. Identical values can stand only once.

Tests used:
MIA PaCa-2 cells = assay: MTS cell proliferation assay; assay type: cell-based, human
Experimental: The cell viability assay was done using the CellTiter 96 Aqueous One Solution Cell Proliferation Assay (Promega, Milano, Italy), a colorimetric method for accessing the number of viable cells in proliferation as described previously ([13]). MIA-PaCa 2 cells were seeded in DMEM complete medium at 36 *10^3 cells/100 uL well into 96-well tissue culture plate. After 24 h, cells were serum starved for 24 h and then were primed with the LIFR major ligand, LIF (10 ng/ml) alone or in combination with BAR502 (5,10 and 20 μM) or only with vehicle. In another experimental setting, MIA-PaCa 2 cells were triggered with PDL103 (10 μM) alone, LIF (10 ng/ml) alone or plus PDL103 or BAR502 (10 μM) or both. In a different setting cell were exposed to an antagonist of the Farnesoid X receptor (FXR), 3-(naphthalen-2-yl)-5-(piperidin-4-yl)-1,2,4-oxadiazole (GP7) (10 µM) ([54]), LIF (10 ng/ml) alone or in combination with GP7 or BAR502 or both. Then cell proliferation assessed as mentioned above. Absorbance was measured using a 96 well reader spectrophotometer (490 nm). In these experiments each experimental setting was replicated ten folds. For analysis the background readings with the medium alone, were subtracted from the samples read-outs.

LIF/LIFR complex = target: T1, LIF/LIFR complex (Homo sapiens, UniProt P42702); assay: Alpha Screen inhibition of LIFR/LIF binding (cell-free); conditions: for IC50: cell-free, LIFR 4.5 nM, biotinylated LIF 9 nM, read-out: LIFR IC50 AlphaScreen (inhibition of LIFR/LIF binding)
T1 construct: purchased Sino Biological (LIFR); R&D Systems (LIF)
T1 sequence (P42702 45-833 limits assumed): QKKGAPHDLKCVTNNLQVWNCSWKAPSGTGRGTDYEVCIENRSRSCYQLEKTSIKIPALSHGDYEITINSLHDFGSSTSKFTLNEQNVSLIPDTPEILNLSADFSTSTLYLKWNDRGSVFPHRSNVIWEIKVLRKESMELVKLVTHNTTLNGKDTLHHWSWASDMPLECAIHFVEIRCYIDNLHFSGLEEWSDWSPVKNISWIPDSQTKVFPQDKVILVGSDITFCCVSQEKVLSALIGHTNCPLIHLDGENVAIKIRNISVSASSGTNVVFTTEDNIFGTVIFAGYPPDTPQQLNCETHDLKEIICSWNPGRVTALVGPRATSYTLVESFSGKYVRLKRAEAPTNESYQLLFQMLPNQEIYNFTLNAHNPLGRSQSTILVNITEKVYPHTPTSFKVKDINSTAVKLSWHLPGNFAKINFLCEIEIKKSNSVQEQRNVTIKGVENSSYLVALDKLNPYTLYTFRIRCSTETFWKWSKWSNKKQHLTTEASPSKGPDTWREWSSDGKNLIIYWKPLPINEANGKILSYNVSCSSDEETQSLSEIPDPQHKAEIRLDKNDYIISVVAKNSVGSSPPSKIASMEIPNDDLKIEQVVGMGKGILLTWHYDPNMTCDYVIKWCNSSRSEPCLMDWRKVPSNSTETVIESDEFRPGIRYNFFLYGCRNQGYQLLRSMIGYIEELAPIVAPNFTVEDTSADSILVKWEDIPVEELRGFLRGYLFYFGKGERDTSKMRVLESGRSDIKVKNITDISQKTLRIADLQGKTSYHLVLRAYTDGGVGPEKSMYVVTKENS
Experimental: Recombinant human LIFR (His Tag) and biotinylated recombinant human LIF were purchased from Sino Biologicals (Sino Biological Europe GmbH, Dusseldorf, Germany) and R&D Systems (Abingdon, UK), respectively, and both were reconstituted as required by the manufacturer. […] The assay was carried out in white, low-volume, 384-well AlphaPlates (PerkinElmer, Waltham, MA, USA) using a final volume of 25 µL and an assay buffer containing 25 mM Hepes (pH 7.4), 100 mM NaCl, and 0.005% Kathon. The concentration of DMSO in each well was maintained at 5%. […] Then, LIF was added (biotinylated, final concentration 9 nM), and the samples were incubated for 15 min prior to adding His-Tag acceptor beads (final concentration 20 ng/µL) for 30 min. Then, streptavidin donor beads were added (final concentration 20 ng/µL), and the plate was incubated in the dark for 2 h and then read in an EnSpire Alpha multimode plate reader (PerkinElmer, Waltham, MA, USA).

Compound	effect of PDL103 co-treatment on BAR502 action on LIF/LIFR induced proliferation and EMT (MIA PaCa-2 cells; PDL103 10 μM + BAR502 10 μM + LIF 10 ng/ml)	effect on LIF/LIFR complex formation (LIFR antagonism), in words (LIF/LIFR complex; cell-free Alpha Screen)	IC50 (LIF/LIFR complex)	effect on LIF-induced proliferation (MTS) (MIA PaCa-2 cells; LIF 10 ng/mL + BAR502 5, 10, 20 µM, 24 h, serum free)
OCc1ccc(-c2ccc(OCc3cc(-c4c(Cl)cccc4Cl)no3)cc2)cc1 [PDL103, (4’-((3-(2,6-dichlorophenyl)isoxazol-5-yl)methoxy)-[1,1’-biphenyl]-4-yl)methanol]	failed to reverse the effect of BAR502	inactive	97.5 ± 29.3 µM	
CC[C@H]1[C@@H](O)C2C3CC[C@H]([C@H](C)CCO)[C@@]3(C)CCC2[C@@]2(C)CC[C@@H](O)C[C@@H]12 (some centres unmarked) [BAR502]			3.6 µM and 3.59 µM	reversed the LIF-proliferative effect in a concentration-dependent manner
